Data taken from patent publication US8080582B2, “Derivatives of 8-epiblechnic acid and their effects on down-regulation of endothelin (ETA) receptor mRNA” (ScinoPharm Taiwan Ltd., priority 2008, dated 2011).
Entries after “also recorded” stand apart in the source; their conditions may differ. Read-outs that look alike come from different tables or passages of the source.

Assays:
Format in all cases: cell-based
[1] = test system: breast cancer cells (MCF-7); assay: MTT cell viability, breast cancer cells; conditions: MCF-7, different concentrations (0-0.5 mM), 48 hrs
Method: (§1) The cells (1×10^5 cells/well in 24-well plates) were cultured for 24 hrs. Different concentrations of Sal-B and its analogs (0, 50, 100, 150, 200, 250 μg/ml) were added to treat the cells. After treating for 48 hrs, 100 μl MTT solution was added to each well, and the plate was placed in an incubator for 1-4 hrs. After adding 400 μl DMSO to treat the cells for 30 min., 200 μl samples were collected and placed in a 96-well plate to conduct the absorption measurement at 550 nm.
Cancer cells were treated with Sal-B and EBA at concentrations of 0, 0.1, 0.2, 0.3, 0.4, 0.5 mM. After treating for 48 hrs, MTT was added, and then allowed to react for 3 hrs at 37° C. After that, DMSO was added and allowed to react for 30 min., the OD570 absorption values were measured. Cell viability was above 80% when nasopharyngeal cancer cells (Hone-1) were treated with […] Sal-B and EBA. […] But the cell viability remained above 70% for treating with 0.1 mM and 0.2 mM EBA. Similar results were obtained when prostate cancer cells (PC-3) were treated with the drugs: Cell viability was above 80% for treating PC-3 cells with 0.2 mM Sal-B or EBA.

[2] = test system: normal mammary gland cell line (A1N4); assay: Cytotoxicity test on normal mammary gland cells
Method: as §1

ETAR mRNA expression = assay: Real-time quantitative RT-PCR of ETAR mRNA in smooth muscle cells (A10); conditions: vascular smooth muscle cells, 100 μg/ml, 48 hrs
Method: Extraction of cellular RNA: Subculturing smooth muscle cells to 100-mm culture dishes. After the cells had filled the culture dishes, Sal-B and its analogs were added to treat the cells for 48 hrs. After that, 1×PBS solutions were added to wash the cells three times. After adding 1 ml TRIzol, the cells were scraped off and placed in 1.5 ml micro-centrifuge tubes. Following the addition of 0.2 ml chloroform to each tube, the tubes were shaken, left at room temperature for 3 min., and run in a centrifuge at 12,000 rpm for 15 min. The supernatant liquid was removed and the cells placed in new micro-centrifuge tubes. After adding an amount of isopropyl alcohol equivalent to one-half of the volume of the supernatant liquid, and mixing until homogeneous, the samples were allowed to stand at room temperature for 10 min. The supernatant liquid was removed after centrifugation at 12,000 rpm for 10 min. 1 ml 70% alcohol was added to wash out salts, followed by centrifugation for 5 min. and removal of supernatant liquid. The samples were dissolved in 50 μl DEPC-H2O after drying.
(1) cDNA synthesis: 1 μl Random hexamer primer (20 μM) and 1 μl dNTP(10 mm) were added to 3 μg RNA, which was allowed to react at 65° C. for 5 min., and then placed on ice promptly. After the addition of 2 μl 10× reaction buffer, 0.5 μl RNaseOUT (40 unit/μl) and 1 μl SuperScript III RT (200 unit/μl), the solution was mixed until homogeneous, and allowed to react at 50° C. for 50 min. After that, the mixture was heated to 85° C. for 5 min. to terminate the enzymatic reaction. The samples were preserved at −70° C. for later use.
(2) PCR quantitative analysis: After adding 7.5 μl PCR primer mix (400 nm each) and 15 μl SYBR Green dye reagent to the 7.5 μl cDNA template, the solution was placed in Bio-Rad's iCycler for PCR reaction. The resulting data was inputted into Gene Expression Analysis for iCycler iQ Real-Time PCR Detection System for quantitative analysis of gene expression.
Furthermore, after treating vascular smooth muscle cells with 100 μg/ml of either Sal-B or EBA for 48 hrs, the identical concentrations of cellular whole RNA were sampled for the synthesis of cDNA by using reverse transcriptase. The PCR method was employed to determine the amounts of endothelin receptor mRNA expression. […] For the analysis of ETAR mRNA expression by using the real-time PCR method, vascular smooth muscle cells at full confluence 100-mm culture dishes were treated with 100 μg/ml of either Sal-B or EBA for 48 hrs. The identical concentrations of cellular whole RNA were sampled for the synthesis of cDNA by using reverse transcriptase. The real-time PCR method was used to compare the amounts of ETAR mRNA expression.
The different analogs, compounds A to F, had different effects on ETAR mRNA expression. The control group represented treating smooth muscle cells (A10) with DMSO, and the positive control group represented treating the cells with Sal-B. The smooth muscle cells were treated with 0.2 mM Sal-B and compounds A to F for 48 hrs. The identical concentrations of cellular RNA were sampled for the synthesis of cDNA by using reverse transcriptase. The real-time PCR method was employed to determine the amounts of ETAR mRNA expression. Compared with the control group, compound B had the least effect on down-regulating ETAR mRNA expression, as approximately 50% of the ETAR mRNA remained after the treatment. […]

[3] = test system: ETAR gene expression in PC-3 cells; assay: PCR of ETAR gene expression in PC-3 cancer cells; conditions: 48 hrs
Method: PC-3 and MCF-7 cancer cells were treated with Sal-B and EBA for 48 hrs, and the identical concentrations of cellular whole RNA were sampled for the synthesis of cDNA by using reverse transcriptase. The PCR method was then used to compare the amounts of endothelin receptor mRNA expression. While the PC-3 cells were treated with either Sal-B or EBA, its ETAR gene expression was not reduced.

O=C(/C=C/c1ccc(O)c2c1[C@H](C(=O)O[C@H](Cc1ccc(O)c(O)c1)C(=O)[O-])[C@@H](c1ccc(O)c(O)c1)O2)O[C@H](Cc1ccc(O)c(O)c1)C(=O)[O-].[Mg+2] [Sal-B, magnesium lithospermate B]
Effect on cancer cell viability [1]: no significant effect on cancer cell viability | Cytotoxicity to normal cells ([2]; A1N4 normal mammary gland cells, FIG. 2): no significant difference was observed on the cytotoxicity results; also recorded: not highly toxic to normal cells | ETAR mRNA expression, % of that in the control (ETAR mRNA expression): approximately 27% | ETAR gene expression [3]: not reduced

epiblechnic acid [EBA]
Effect on cancer cell viability [1]: no significant effect on cancer cell viability | Cytotoxicity to normal cells [2]: no significant difference was observed on the cytotoxicity results | ETAR mRNA expression, % of that in the control (ETAR mRNA expression): roughly 51% | ETAR gene expression [3]: not reduced
